Reference: US9944641B2, “Isoquinolinone derivatives useful in the treatment of cancer” (PIERRE FABRE MEDICAMENT, priority 2014, dated 2018)

Assays:
[1] = molecular target: T1, FLT3 wt (Homo sapiens, UniProt P36888); assay: Lanthascreen TR-FRET enzymatic assay, FLT3; assay type: binding; conditions: recombinant FLT3, 1 hour at 25° C., 1% DMSO; read-out: Enzymology (IC50) FLT3 wt
T1 construct: purchased Life Technologies PV3182
T1 sequence (P36888 564-993 limits assumed): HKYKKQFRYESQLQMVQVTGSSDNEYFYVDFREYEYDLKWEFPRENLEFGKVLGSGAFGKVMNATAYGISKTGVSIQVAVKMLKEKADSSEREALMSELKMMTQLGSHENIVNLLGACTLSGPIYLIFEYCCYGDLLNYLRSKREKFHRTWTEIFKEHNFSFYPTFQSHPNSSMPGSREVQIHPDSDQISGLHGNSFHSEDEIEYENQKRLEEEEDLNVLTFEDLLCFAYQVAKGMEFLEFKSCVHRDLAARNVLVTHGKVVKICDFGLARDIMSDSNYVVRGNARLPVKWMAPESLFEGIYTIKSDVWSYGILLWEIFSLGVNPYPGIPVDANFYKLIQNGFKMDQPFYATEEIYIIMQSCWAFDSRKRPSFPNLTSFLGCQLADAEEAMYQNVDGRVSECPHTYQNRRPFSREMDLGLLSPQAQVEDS
Method: (§1) Recombinant FLT3 (#PV3182), JAK2 (#PV4210) and JAK3 (#PV3855) enzymes were purchased from Life Technologies. FLT3-ITD (#0778-0000-1) and FLT3^D835Y (#14-610) were respectively purchased from Proquinase and Merck Millipore.
(§2) The assays were conducted in 384-well plates based on Life Technologies Lanthascreen® TR-FRET methodologies.
FLT3 assays: 15 nM of FLT3, 3 nM of the 236 kinase tracker (Life Technologies #PV5592) and 6 nM of the Europium-tagged anti-His Lanthascreen® antibody are mixed into 15 μL total volume reaction mixture.
(§3) IC50s were determined from a 8-point dose-response curve spanning a >1000 fold concentration range using a 10 mM compound solution stock into pure DMSO (Sigma #D8418). The overall DMSO concentrations of tested solutions were 1%.
(§4) IC50s were generated with the software Prism (Graphpad).

[2] = molecular target: T2, FLT3-ITD (Homo sapiens, UniProt P36888); assay: Lanthascreen TR-FRET enzymatic assay, FLT3-ITD; assay type: binding; conditions: 1 hour at 25° C., 1% DMSO, read-out: Enzymology (IC50) FLT3-ITD
T2 construct: fused on or other part: GST tag (detected with the Europium-tagged anti-GST antibody)
T2 sequence (P36888 1-993): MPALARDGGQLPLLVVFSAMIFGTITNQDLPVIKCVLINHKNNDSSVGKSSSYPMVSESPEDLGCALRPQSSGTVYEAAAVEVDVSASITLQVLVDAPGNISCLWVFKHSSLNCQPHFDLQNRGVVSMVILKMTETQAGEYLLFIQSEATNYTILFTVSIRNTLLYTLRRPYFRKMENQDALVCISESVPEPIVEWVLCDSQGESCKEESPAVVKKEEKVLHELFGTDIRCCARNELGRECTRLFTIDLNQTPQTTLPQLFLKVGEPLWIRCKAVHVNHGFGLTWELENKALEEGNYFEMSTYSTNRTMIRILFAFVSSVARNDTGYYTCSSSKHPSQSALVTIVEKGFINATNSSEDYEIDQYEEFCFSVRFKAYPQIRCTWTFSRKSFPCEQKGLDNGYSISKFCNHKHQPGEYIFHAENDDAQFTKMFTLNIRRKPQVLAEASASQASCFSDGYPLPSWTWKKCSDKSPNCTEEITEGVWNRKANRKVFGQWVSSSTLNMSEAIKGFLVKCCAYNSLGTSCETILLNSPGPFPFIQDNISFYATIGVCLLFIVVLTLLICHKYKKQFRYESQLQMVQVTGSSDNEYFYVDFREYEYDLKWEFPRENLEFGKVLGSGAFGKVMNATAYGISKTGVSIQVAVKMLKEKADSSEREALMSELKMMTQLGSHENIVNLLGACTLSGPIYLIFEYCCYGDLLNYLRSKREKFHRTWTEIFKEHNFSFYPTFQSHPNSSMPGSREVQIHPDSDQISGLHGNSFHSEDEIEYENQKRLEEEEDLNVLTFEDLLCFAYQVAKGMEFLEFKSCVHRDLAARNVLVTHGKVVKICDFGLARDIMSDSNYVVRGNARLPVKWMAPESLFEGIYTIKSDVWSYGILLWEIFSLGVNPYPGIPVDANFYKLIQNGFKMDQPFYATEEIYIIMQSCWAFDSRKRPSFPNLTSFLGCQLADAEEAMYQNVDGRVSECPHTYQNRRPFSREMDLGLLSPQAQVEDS
Method: as §1, §2
FLT3-ITD or FLT3^D835Y assays: 15 nM of FLT3-ITD or FLT3^D835Y, 3 nM of the 236 kinase tracker (Life Technologies #PV5592) and 6 nM of the Europium-tagged anti-GST Lanthascreen® antibody are mixed into 15 μL total volume reaction mixture.
as §3, §4

[3] = molecular target: T3, JAK2 (Homo sapiens, UniProt O60674); assay: Lanthascreen TR-FRET enzymatic assay, JAK2; assay type: binding; conditions: recombinant JAK2, 1 hour at 25° C., 1% DMSO; read-out: Enzymology (IC50) JAK2
T3 construct: purchased Life Technologies PV4210
Method: as §1, §2
JAK2 assays: 15 nM of JAK2, 150 nM of the 236 kinase tracker (Life Technologies #PV5592) and 6 nM of the Europium-tagged anti-GST Lanthascreen® antibody are mixed into 15 μL total volume reaction mixture.
as §3, §4

[4] = tested on: MV4-11 cells; assay: Antiproliferative activity assay (ATPLite), MV4-11; assay type: cell-based; conditions: Homo sapiens, MV4-11 (AML, FLT3-ITD), 72 h, read-out: Inhibition of proliferation (EC50) MV411
Method: (§5) Cell lines MV4-11 and MOLM-13 are grown according to conditions depicted in Table 2 following the provider recommendations.
(§6) Assays are being run into 96-well plates. Cells are passaged at Day 0, seeded at Day 1 and added with increasing quantities of the compounds to evaluate. Plates are incubated for 72 h at 37° C. under a 5% CO2 atmosphere.
(§7) Half-logarithmic dilutions from compounds stock solutions in DMSO (Sigma #D8414) were done in order to obtain 0.1% DMSO solutions.
(§8) Cellular viability is measured at Day 4 with the ATPLite (Perkin Elmer #6016947) kit.

[5] = tested on: MOLM-13 cells; assay: Antiproliferative activity assay (ATPLite), MOLM-13; assay type: cell-based; conditions: Homo sapiens, MOLM-13 (AML, FLT3-ITD), 72 h, read-out: Inhibition of proliferation (EC50) MOLM13
Method: as §5, §6, §7, §8

T3 sequence (O60674 whole entry): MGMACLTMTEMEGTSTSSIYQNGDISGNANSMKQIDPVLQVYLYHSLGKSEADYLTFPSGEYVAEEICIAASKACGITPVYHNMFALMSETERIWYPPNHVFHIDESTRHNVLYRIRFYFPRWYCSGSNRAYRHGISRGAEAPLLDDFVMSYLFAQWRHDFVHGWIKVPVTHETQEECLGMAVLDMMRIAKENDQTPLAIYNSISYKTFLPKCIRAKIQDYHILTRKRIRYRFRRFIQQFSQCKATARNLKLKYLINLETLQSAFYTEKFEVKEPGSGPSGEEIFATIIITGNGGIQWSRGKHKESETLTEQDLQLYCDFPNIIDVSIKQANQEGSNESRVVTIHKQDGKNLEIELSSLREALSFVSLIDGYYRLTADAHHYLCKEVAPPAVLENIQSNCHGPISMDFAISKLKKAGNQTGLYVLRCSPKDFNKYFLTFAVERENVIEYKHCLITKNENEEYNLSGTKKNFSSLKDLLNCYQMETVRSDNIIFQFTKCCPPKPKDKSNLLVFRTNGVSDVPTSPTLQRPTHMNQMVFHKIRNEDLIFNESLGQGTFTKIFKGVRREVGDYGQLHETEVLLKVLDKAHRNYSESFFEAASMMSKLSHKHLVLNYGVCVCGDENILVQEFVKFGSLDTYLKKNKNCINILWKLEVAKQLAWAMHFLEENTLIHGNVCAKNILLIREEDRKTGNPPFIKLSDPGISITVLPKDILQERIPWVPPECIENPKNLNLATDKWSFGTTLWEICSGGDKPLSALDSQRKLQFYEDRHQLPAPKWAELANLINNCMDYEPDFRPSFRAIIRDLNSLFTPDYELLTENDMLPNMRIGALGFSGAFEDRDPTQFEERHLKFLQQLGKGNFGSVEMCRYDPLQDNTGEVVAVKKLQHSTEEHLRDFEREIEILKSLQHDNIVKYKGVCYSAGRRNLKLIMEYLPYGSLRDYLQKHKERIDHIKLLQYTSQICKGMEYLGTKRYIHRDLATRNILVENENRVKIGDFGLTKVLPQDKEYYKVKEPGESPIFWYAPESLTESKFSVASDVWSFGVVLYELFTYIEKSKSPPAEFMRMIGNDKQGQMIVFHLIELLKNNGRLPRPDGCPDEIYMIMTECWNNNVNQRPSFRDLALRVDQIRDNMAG

IC50 [1] [nM]	IC50 [2] [nM]	IC50 [3] [nM]	EC50 [4] [nM]	EC50 [5] [nM]	SMILES
100 to 1000	25 to 100	100 to 1000	25 to 100	25 to 100	COc1cc2c(cc1N)c(=O)n(C)c1cnc(Nc3cc(N)cc(F)c3)nc21 [Compound C26, 8-amino-2-((3-amino-5-fluorophenyl)amino)-9-methoxy-5-methylpyrimido [5,4-c]isoquinolin-6(5H)-one]
25 to 100	< 25	100 to 1000	100 to 1000	100 to 1000	Cn1c(=O)c2cc(N)ccc2c2nc(Nc3ccc(OCCN4CCCC4)cc3)ncc21 [Compound C34, 8-amino-5-methyl-2-((4-(2-(pyrrolidin-1-yl)ethoxy)phenyl)amino)pyrimido[5,4-c]isoquinolin-6(5H)-one]
100 to 1000	< 25	100 to 1000	100 to 1000	100 to 1000	COc1cc2c(cc1N)c(=O)n(C)c1cnc(Nc3ccc(OCCN4CCCC4)cc3)nc21 [Compound C42, 8-amino-9-methoxy-5-methyl-2-((4-(2-(pyrrolidin-1-yl)ethoxy)phenyl)amino) pyrimido[5,4-c]isoquinolin-6(5H)-one]
25 to 100	< 25	100 to 1000	< 25	100 to 1000	COc1cc2c(cc1N)c(=O)n(C)c1cnc(Nc3ccc(N4CCN(C)CC4)cc3)nc21 [Compound C10, 8-amino-9-methoxy-5-methyl-2-((4-(4-methylpiperazin-1-yl)phenyl)amino) pyrimido[5,4-c]isoquinolin-6(5H)-one]
25 to 100	< 25	100 to 1000	< 25	< 25	CN1CCN(c2ccc(Nc3ncc4c(n3)c3ccc(N)cc3c(=O)n4C)cc2)CC1 [Compound C4, 8-amino-5-methyl-2-((4-(4-methylpiperazin-1-yl)phenyl)amino)pyrimido[5,4-c]isoquinolin-6(5H)-one]
25 to 100	< 25	25 to 100	25 to 100	25 to 100	Cn1c(=O)c2cc(N)ccc2c2nc(Nc3cccc(N)c3)ncc21 [Compound C2, 8-amino-2-((3-aminophenyl)amino)-5-methylpyrimido[5,4-c]isoquinolin-6(5H)-one]
25 to 100	< 25	100 to 1000	25 to 100	25 to 100	CN1CCN(c2cccc(Nc3ncc4c(n3)c3ccc(N)cc3c(=O)n4C)c2)CC1 [Compound C6, 8-amino-5-methyl-2-((3-(4-methylpiperazin-1-yl)phenyl)amino)pyrimido[5,4-c]isoquinolin-6(5H)-one]
100 to 1000	< 25	100 to 1000	25 to 100	100 to 1000	COc1cc2c(cc1N)c(=O)n(C)c1cnc(Nc3ccc(F)c(N)c3)nc21 [Compound C28, 8-amino-2-((3-amino-4-fluorophenyl)amino)-9-methoxy-5-methylpyrimido [5,4-c]isoquinolin-6(5H)-one]
100 to 1000	< 25	100 to 1000	100 to 1000	100 to 1000	Cn1c(=O)c2cc(N)ccc2c2nc(Nc3ccc(F)c(N)c3)ncc21 [Compound C22, 8-amino-2-((3-amino-4-fluorophenyl)amino)-5-methylpyrimido[5,4-c]isoquinolin-6(5H)-one]
